Measurements taken from the kinase profiling compilation of Christmann-Franck et al. (2016).
Where “and” joins values, the source holds several entries; their conditions need not be identical. Identical values can stand only once.

Legend:
Test in all cases: radiometric filter-binding kinase assay, Kinase HotSpot
Conditions in all cases: compound 0.5 µM; ATP 10 µM
[1] = target: TGFBR1 (human) (UniProt P36897)
[2] = target: CSF1R (human) (UniProt P07333)
[3] = target: PBK (human) (UniProt Q96KB5)
[4] = target: MAP3K5 (human) (UniProt Q99683)
[5] = target: TEK (human) (UniProt Q02763)
[6] = target: CDK2 CCNA2 (human) (UniProt P24941+P20248)
[7] = target: MAPK1 (human) (UniProt P28482)
[8] = target: CAMK4 (human) (UniProt Q16566)
[9] = target: ROS1 (human) (UniProt P08922)
[10] = system: MAP2K6 (human), P52564 [S207E/T211E]
[11] = target: FER (human) (UniProt P16591)
[12] = target: PAK7 (human) (UniProt Q9P286)
[13] = target: EPHB2 (human) (UniProt P29323)
[14] = target: DYRK3 (human) (UniProt O43781)
[15] = target: EPHA7 (human) (UniProt Q15375)
[16] = target: CSNK2A2 (human) (UniProt P19784)
[17] = target: CDK1 CCNB1 (human) (UniProt P06493+P14635)
[18] = target: EPHA8 (human) (UniProt P29322)
[19] = target: CSNK1G2 (human) (UniProt P78368)
[20] = target: SRMS (human) (UniProt Q9H3Y6)
[21] = target: PHKG2 (human) (UniProt P15735)
[22] = target: PAK3 (human) (UniProt O75914)
[23] = target: LYN (human) (UniProt P07948)
[24] = target: TYRO3 (human) (UniProt Q06418)
[25] = target: ULK1 (human) (UniProt O75385)
[26] = target: CDK4 CCND1 (human) (UniProt P24385+P11802)
[27] = target: ACVRL1 (human) (UniProt P37023)
[28] = target: AKT3 (human) (UniProt Q9Y243)
[29] = target: PRKX (human) (UniProt P51817)
[30] = target: MARK2 (human) (UniProt Q7KZI7)
[31] = target: CLK4 (human) (UniProt Q9HAZ1)
[32] = target: PRKG2 (human) (UniProt Q13237)
[33] = target: TAOK1 (human) (UniProt Q7L7X3)
[34] = target: MUSK (human) (UniProt O15146)
[35] = target: CDK3 CCNE1 (human) (UniProt Q00526+P24864)
[36] = target: RPS6KA2 KD1 KD2 (human) (UniProt Q15349)
[37] = target: CHEK2 (human) (UniProt O96017)
[38] = target: IRAK1 (human) (UniProt P51617)
[39] = target: PLK2 (human) (UniProt Q9NYY3)
[40] = target: STK39 (human) (UniProt Q9UEW8)
[41] = target: NUAK1 (human) (UniProt O60285)
[42] = target: STK3 (human) (UniProt Q13188)

Chain of LYN (human) (P07948 whole entry, looked up): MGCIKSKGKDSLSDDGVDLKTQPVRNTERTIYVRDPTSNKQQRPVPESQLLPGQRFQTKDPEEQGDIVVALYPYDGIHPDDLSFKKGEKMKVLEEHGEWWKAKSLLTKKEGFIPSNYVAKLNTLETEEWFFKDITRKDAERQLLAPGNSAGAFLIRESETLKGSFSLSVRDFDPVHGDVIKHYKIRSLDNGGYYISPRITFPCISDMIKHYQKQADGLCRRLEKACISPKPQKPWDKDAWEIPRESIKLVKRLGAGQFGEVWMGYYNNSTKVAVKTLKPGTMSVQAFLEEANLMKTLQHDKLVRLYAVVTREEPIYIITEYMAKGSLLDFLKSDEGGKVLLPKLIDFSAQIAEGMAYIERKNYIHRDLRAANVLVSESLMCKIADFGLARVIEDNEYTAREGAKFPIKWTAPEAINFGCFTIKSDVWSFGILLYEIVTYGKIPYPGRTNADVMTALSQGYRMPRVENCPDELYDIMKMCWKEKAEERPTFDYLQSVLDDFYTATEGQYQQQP
Chain of MUSK (human) (O15146 whole entry, looked up): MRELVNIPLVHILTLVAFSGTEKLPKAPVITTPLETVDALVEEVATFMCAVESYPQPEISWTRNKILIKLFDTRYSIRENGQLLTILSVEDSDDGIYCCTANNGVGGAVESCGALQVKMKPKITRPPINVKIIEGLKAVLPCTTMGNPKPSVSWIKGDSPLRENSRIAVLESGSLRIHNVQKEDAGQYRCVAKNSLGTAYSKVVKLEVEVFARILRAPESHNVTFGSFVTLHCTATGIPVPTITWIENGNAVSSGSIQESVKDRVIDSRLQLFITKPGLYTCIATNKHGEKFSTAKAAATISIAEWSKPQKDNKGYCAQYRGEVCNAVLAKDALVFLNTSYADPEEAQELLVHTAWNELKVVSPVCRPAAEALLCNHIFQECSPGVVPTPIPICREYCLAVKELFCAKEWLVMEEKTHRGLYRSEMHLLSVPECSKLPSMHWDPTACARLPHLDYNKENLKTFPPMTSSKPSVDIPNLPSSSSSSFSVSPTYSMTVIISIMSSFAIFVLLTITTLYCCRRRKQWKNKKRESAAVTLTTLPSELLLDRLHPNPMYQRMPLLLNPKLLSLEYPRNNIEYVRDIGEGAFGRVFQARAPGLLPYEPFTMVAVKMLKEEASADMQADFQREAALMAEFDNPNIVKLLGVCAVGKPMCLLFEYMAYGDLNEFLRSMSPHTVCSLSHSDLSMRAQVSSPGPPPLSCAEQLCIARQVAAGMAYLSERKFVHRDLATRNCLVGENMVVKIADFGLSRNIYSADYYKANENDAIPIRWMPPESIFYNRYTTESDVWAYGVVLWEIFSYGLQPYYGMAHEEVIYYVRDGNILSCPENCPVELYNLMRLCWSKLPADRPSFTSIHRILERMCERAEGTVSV
Chain of TEK (human) (Q02763 whole entry, looked up): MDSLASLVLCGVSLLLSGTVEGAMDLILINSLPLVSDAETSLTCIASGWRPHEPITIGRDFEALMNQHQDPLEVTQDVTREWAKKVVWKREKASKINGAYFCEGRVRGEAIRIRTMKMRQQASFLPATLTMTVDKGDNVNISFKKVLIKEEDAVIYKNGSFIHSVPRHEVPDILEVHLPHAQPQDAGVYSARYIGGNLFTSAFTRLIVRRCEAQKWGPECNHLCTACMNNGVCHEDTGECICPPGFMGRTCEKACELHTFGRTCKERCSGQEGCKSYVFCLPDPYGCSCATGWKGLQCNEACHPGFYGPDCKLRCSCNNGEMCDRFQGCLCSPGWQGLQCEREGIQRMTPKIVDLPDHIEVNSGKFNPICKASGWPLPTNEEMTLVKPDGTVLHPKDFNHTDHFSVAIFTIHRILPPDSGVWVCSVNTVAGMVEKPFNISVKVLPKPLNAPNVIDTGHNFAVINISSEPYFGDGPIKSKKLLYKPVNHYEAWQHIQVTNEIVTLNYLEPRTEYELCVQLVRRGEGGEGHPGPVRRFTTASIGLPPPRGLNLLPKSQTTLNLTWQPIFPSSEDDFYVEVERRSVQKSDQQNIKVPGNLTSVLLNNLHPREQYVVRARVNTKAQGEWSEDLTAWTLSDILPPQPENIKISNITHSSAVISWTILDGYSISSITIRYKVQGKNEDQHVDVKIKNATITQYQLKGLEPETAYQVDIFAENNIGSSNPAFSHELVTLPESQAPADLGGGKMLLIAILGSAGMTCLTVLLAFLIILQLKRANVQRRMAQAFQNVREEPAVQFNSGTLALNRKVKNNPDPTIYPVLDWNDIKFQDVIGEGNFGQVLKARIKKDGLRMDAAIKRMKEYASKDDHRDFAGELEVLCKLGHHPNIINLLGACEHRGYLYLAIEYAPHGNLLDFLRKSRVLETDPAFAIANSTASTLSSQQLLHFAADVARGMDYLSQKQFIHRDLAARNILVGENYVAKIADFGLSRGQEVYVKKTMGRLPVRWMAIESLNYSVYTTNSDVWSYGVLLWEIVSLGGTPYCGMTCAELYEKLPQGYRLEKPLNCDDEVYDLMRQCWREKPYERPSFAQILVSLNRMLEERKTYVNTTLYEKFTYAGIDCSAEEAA
Chain of MARK2 (human) (Q7KZI7 whole entry, looked up): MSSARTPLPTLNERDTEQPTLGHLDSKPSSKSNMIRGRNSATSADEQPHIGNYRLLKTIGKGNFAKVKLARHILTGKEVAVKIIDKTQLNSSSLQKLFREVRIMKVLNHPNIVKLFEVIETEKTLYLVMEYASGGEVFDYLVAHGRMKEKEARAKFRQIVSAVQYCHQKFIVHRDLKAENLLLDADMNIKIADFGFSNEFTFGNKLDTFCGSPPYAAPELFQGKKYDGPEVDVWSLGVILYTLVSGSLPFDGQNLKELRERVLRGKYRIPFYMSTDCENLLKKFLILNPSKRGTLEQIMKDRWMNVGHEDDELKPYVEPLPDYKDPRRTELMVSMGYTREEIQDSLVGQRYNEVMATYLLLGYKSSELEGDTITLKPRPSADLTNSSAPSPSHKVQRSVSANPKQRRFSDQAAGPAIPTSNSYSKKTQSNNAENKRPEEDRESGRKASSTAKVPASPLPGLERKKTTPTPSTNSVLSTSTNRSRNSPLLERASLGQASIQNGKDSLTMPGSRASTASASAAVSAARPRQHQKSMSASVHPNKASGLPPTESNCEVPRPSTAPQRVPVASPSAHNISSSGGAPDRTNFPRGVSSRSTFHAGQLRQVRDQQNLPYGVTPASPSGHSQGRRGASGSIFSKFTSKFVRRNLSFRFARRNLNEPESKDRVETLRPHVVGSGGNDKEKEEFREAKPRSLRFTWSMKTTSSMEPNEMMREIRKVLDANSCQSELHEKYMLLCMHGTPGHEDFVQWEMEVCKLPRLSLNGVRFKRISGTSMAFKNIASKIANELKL
Chain of CSNK1G2 (human) (P78368 whole entry, looked up): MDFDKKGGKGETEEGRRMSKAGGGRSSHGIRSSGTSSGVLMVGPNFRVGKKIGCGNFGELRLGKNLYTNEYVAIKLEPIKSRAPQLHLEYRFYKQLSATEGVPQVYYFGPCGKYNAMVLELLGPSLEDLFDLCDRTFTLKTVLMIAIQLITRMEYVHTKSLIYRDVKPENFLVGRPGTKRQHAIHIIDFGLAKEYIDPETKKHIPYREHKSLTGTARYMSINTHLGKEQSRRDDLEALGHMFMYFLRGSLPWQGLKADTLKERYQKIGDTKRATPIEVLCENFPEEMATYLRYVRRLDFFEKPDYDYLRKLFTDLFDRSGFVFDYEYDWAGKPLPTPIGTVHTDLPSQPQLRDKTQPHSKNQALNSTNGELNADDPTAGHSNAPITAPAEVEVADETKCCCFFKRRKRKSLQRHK
Chain of CDK3 CCNE1 (human) (P24864 whole entry, looked up): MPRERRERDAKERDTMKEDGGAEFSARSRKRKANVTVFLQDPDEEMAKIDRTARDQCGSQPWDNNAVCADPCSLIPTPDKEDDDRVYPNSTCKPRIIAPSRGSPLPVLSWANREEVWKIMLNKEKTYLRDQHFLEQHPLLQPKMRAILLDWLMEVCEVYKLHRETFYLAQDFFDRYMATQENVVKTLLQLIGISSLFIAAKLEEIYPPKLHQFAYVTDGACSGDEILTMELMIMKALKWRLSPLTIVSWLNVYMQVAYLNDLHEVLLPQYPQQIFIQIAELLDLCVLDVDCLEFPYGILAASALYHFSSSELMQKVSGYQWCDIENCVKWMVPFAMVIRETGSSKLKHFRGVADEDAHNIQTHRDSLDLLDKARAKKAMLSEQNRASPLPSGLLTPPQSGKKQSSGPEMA
Chain of CDK3 CCNE1 (human) (Q00526 whole entry, looked up): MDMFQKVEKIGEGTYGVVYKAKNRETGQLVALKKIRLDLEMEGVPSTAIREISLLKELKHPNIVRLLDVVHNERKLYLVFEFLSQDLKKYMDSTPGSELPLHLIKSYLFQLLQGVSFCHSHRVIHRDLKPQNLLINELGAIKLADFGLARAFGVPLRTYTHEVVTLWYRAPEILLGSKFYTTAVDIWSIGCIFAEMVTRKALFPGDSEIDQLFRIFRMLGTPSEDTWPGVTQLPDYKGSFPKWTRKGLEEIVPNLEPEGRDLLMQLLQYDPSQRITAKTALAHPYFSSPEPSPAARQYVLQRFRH
Chain of CDK4 CCND1 (human) (P11802 whole entry, looked up): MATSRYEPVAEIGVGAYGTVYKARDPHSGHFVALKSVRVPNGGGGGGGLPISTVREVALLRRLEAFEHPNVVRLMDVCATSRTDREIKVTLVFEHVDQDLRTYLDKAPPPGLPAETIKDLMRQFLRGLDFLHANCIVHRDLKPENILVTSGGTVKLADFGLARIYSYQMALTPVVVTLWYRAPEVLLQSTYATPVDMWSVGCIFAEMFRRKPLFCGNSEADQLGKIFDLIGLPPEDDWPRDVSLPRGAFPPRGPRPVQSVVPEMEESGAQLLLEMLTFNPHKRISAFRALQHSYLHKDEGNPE
Chain of CDK4 CCND1 (human) (P24385 whole entry, looked up): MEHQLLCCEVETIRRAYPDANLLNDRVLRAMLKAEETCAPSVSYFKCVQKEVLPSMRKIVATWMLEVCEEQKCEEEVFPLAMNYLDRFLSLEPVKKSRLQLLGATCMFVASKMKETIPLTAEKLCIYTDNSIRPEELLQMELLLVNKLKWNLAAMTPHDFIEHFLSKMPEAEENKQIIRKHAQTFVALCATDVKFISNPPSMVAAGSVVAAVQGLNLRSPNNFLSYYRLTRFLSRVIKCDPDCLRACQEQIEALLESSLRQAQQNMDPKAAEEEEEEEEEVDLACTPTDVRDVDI

COc1cc2ncnc(Nc3ccc(Oc4ccccc4)cc3)c2cc1OC
residual activity [1]: 97.1%
residual activity [2]: 100%
residual activity [3]: 92.6%
residual activity [4]: 107%
residual activity [5]: 99.7%
residual activity [6]: 100%
residual activity [7]: 99.8%
residual activity [8]: 97.8%
residual activity [9]: 95.3%
residual activity [10]: 102%
residual activity [11]: 75.7%
residual activity [12]: 103%
residual activity [13]: 99.7%
residual activity [14]: 103%
residual activity [15]: 100%
residual activity [16]: 98.2%
residual activity [17]: 81.2%
residual activity [18]: 97.4%
residual activity [19]: 99.9%
residual activity [20]: 31.6%
residual activity [21]: 100%
residual activity [22]: 98.1%
residual activity [23]: 21.6% and 42.6%
residual activity [24]: 83.4%
residual activity [25]: 89.5%
residual activity [26]: 113%
residual activity [27]: 100%
residual activity [28]: 105%
residual activity [29]: 95.2%
residual activity [30]: 95.3%
residual activity [31]: 122%
residual activity [32]: 98.3%
residual activity [33]: 105%
residual activity [34]: 89.8%
residual activity [35]: 98.5%
residual activity [36]: 98%
residual activity [37]: 29.6%
residual activity [38]: 122%
residual activity [39]: 104%
residual activity [40]: 102%
residual activity [41]: 105%
residual activity [42]: 121%

Ic1cccc(CSc2nnc(-c3ccncc3)o2)c1
residual activity [1]: 94.4%
residual activity [2]: 104%
residual activity [3]: 62.7%
residual activity [4]: 91.7%
residual activity [5]: 92.6%
residual activity [6]: 100%
residual activity [7]: 107%
residual activity [8]: 91.6%
residual activity [9]: 99.3%
residual activity [10]: 97%
residual activity [11]: 101%
residual activity [12]: 99.3%
residual activity [13]: 87.7%
residual activity [14]: 108%
residual activity [15]: 100%
residual activity [16]: 81%
residual activity [17]: 92%
residual activity [18]: 91.5%
residual activity [19]: 99.2%
residual activity [20]: 93.4%
residual activity [21]: 105%
residual activity [22]: 92.9%
residual activity [23]: 103% and 99.6%
residual activity [24]: 103%
residual activity [25]: 97.1%
residual activity [26]: 96.3%
residual activity [27]: 103%
residual activity [28]: 90.7%
residual activity [29]: 78.2%
residual activity [30]: 116%
residual activity [31]: 90%
residual activity [32]: 105%
residual activity [33]: 101%
residual activity [34]: 94.1%
residual activity [35]: 87.4%
residual activity [36]: 101%
residual activity [37]: 102%
residual activity [38]: 121%
residual activity [39]: 101%
residual activity [40]: 101%
residual activity [41]: 95.1%
residual activity [42]: 110%
